According to patent US10640545B2 (THE GOVERNORS OF THE UNIVERSITY OF ALBERTA, priority 2017, dated 2020):
Where a SMILES comes first, the peptide text is derived from it. [ ]: non-standard residue; d: D form. The star is where a group is joined. Phe(4-Br) = N[C@@H](Cc1ccc(Br)cc1)C(=O)O; Palmitoyl = CCCCCCCCCCCCCCCC(=O)*; NMeL = CN[C@@H](CC(C)C)C(=O)O; Nle = CCCC[C@H](N)C(=O)O; Aib = CC(C)(N)C(=O)O

Experiments:
[1] = biological target: T1, recombinant human APJ-Ga16 receptor (Homo sapiens, UniProt P35414); assay: Ca2+ mobilization assay (FLIPR, Chem-5-APJ cells); format: cell-based; conditions: among peptides 56-59
T1 construct: host or cells: Chem-5-APJ cells
T1 sequence (P35414 1-380): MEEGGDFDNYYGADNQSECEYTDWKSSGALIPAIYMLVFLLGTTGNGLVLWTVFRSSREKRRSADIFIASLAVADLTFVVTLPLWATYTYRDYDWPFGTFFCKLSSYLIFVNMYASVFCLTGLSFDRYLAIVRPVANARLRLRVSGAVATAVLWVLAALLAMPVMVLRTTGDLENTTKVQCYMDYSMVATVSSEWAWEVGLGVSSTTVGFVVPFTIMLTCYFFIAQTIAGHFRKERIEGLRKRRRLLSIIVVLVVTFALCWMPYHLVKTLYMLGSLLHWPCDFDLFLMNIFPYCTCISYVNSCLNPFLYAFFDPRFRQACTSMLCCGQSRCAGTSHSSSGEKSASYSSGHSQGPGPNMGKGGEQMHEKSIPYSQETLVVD
Method: To study the extent to which the newly derived peptides trigger APJ-receptor activation, a fluorescence coupled calcium release assay including a recombinant human APJ-Ga16 receptor cell line was used.
Chem-5-APJ cells (Millipore, USA) were seeded (30 000 cells/well) into Nunclon Delta Surface 96-well, clear-bottom microtitre plates (Thermo Scientific, Denmark) 24 hours prior to assay. Cells were loaded for 1 hour with FLIPR Calcium 6-QF fluorescent indicator dye (Molecular Devices, USA) in assay buffer [Hanks balanced salt solution (HBSS), 20 mM HEPES, 0.2% DMSO, 2.5 mM probenecid, pH 7.6], washed three times with assay buffer, then returned to the incubator for 10 min before assay on a fluorimetric imaging plate reader (FLIPR; Molecular Devices, Sunnyvale, Calif., USA). Maximum change in fluorescence over baseline was used to determine agonist response. Dose—response curve data were fitted to a four-parameter logistic equation using PRISM (Graph Pad, USA) from which pEC50 values were calculated. FIGS. 14A-G show the concentration response curves of apelin peptides.

[2] = test system: anesthetized mice; assay: Blood pressure assay in anesthetized mice; format: in vivo; conditions: 1.4 μM/kg body weight injected
Method in brief: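 Mice were anaesthetized with 1.5% isoflurane/oxygen and kept at 36 °C. Peptide (1.4 μM/kg body weight) or saline was injected via the right jugular vein. Arterial pressure and heart rate were recorded continuously through a catheter in the aorta via the right carotid artery over 60 min and reported as SBP, DBP, MABP and HR.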

SMILES: CCCCCCCCCCCCCCCC(=O)N[C@@H](CCCCN)C(=O)N[C@@H](Cc1ccccc1)C(=O)N[C@@H](CCCNC(=N)N)C(=O)N[C@@H](CCCNC(=N)N)C(=O)N[C@@H](CCC(N)=O)C(=O)N[C@@H](CCCNC(=N)N)C(=O)N1CCC[C@H]1C(=O)N[C@@H](CCCNC(=N)N)C(=O)N(C)[C@@H](CC(C)C)C(=O)N[C@@H](CO)C(=O)N[C@@H](Cc1c[nH]cn1)C(=O)N[C@@H](CCCCN)C(=O)NCC(=O)N1CCC[C@H]1C(=O)N[C@@H](CCCC)C(=O)NC(C)(C)C(=O)N[C@@H](Cc1ccc(Br)cc1)C(=O)O [Peptide 58] (Palmitoyl-KFRRQRPR[NMeL]SHKGP[Nle][Aib][Phe(4-Br)]-OH; C-terminus assumed)
- Ca2+ mobilization (in words) [1]: lowest Ca^2+ mobilization
- effect on heart rate (HR) [2]: heart rate increasing effect is restored
